From patent publication US11439618B2, “Compositions and methods for lowering triglycerides” (Amarin Pharmaceuticals Ireland Limited, priority 2009, dated 2022)

Tests used:
[1] = system: subjects with Age-Associated Memory Impairment; assay: CDR computerized cognitive test battery, 6-week study in Age-Associated Memory Impairment; assay type: in vivo, human; conditions: for Quality of Episodic Secondary Memory, LS mean difference vs placebo: overall; for Self-Rated Contentment, ANCOVA: p<0.001
Procedure: A single-center, 6-week, double-blind, randomizes, parallel-group, placebo-controlled, dose-ranging pilot study was performed to evaluate the efficacy, tolerability, and safety of >96% ethyl-EPA in subjects with subjective and objective memory impairment according to generally accepted criteria for Age-Associated Memory Impairment (“AAMI”). The primary objective of the study was to determine the effect of >96% ethyl-EPA 1 g, 2 g, and 4 g daily, compared to placebo, on cognitive performance in subjects with AAMI.
The population for this study was men and women between ages 50 and 70 with self-reported complaints of memory loss, subjective and objective cognitive impairment with a score of at least one standard deviation below that of the mean for age-matched elderly population as determined by the total score of between 13 and 20 from the Paired Associated Learning (“PAL”) subset of the Wechsler Memory Scale, evidence of adequate intellectual function as determined by a scaled score of at least 9 (raw score of at least 32) on the Vocabulary subtest of the Wechsler Adult Intelligence Scale and absence of dementia as determined by a score of 24 or higher on the Mini-Mental State Examination (“MMSE”).
Ninety-four subjects were randomized into one of six groups: 1 g E-EPA daily (n=23), 2 g E-EPA daily (n=24), 4 g E-EPA daily (n=24), 1 g placebo daily (n=7), 2 g placebo daily (n=8), and 4 g placebo daily (n=8). E-EPA was provided as 500 mg soft gel capsules containing >96% E-EPA and 0.2% dl-α-tocopherol as an antioxidant. Placebo capsules contained 467 mg of liquid paraffin and 0.2% dl-a-tocopherol. Ninety-one subjects completed the study. Two subjects in the 2 g E-EPA group and one subject in the 2 g placebo group discontinued the study.
The study consisted of a screening visit, a training visit, and four study visits. At the screening visit, subjects' eligibility was determined through cognitive tests (verbal paired associated learning [PAL] subscale, vocabulary subtest, Memory Assessment Clinics Questionnaire [MAC-Q], mini mental state evaluation [MMSE] and MINI [mini international neuropsychiatric interview; sections 1 and 2 of Diagnostic and Statistical Manual of Mental Disorders, 4th Edition (DSM-IV) plus dysthymia]), haematology, clinical chemistry and 12-lead electrocardiogram (ECG). At the training visit, subjects were shown how to use the CDR computerized system. Subjects took study drug for 6 weeks and on Days 0, 14, 28 and 42, subjects underwent the CDR cognitive test battery.
A selection of tasks from the CDR computerized cognitive assessment system were administered at Visit 2 (training visit), Visit 3 (baseline), Visit 4 (Day 14), Visit 5 (Day 28) and Visit 6 (Day 42). Parallel forms of the tests were presented at each testing session. All tasks were computer-controlled, the information presented on high resolution monitors, and the responses recorded via a response model containing two buttons: one marked ‘no’ and the other ‘yes’. Five CDR composite scores were used as the primary/secondary outcome variables. The task titles were: • Word Presentation • Immediate Word Recall • Picture Presentation • Simple Reaction Time • Digit Vigilance • Choice Reaction Time • Spatial Working Memory • Numeric Working Memory • Delayed Word Recall • Word Recognition • Picture Recognition • Bond-Lader Visual Analogue Scales of Mood and Alertness • Screen, Using the Computer Mouse
Summary statistics were provided for the ITT and Study Per Protocol Populations separately for all composite scores, major and supportive variables. Summary statistics were performed for both the unadjusted and difference from baseline data (i.e. the difference from the time matched predose assessments on Day 0). Summary statistics were calculated by treatment, day and time-point. The summary statistics comprised n, mean, median, SD, standard error of mean (“SEM”), minimum and maximum values. […]

[2] = previous data; standard deviation of 15%; cited from earlier work

CC/C=C\C/C=C\C/C=C\C/C=C\C/C=C\CCCC(=O)OCC [Ethyl-EPA, all-cis eicosa-5,8,11,14,17-pentaenoic acid ethyl ester]
Continuity of Attention and Digit Vigilance Targets Detected, effect of treatment ([1]; ITT): no statistically significant effect of treatment | Immediate and Delayed Word Recall Accuracies, Word and Picture Recognition Sensitivity Indices, effect of treatment ([1]; ITT): no statistically significant effects of treatment | Quality of Episodic Secondary Memory, effect of treatment ([1]; ITT): no statistically significant effect of treatment | Self-Rated Alertness, effect of treatment ([1]; ITT): no statistically significant effect of treatment | Self-Rated Calmness, effect of treatment ([1]; ITT): no statistically significant effect of treatment | Self-Rated Contentment, LS mean difference to placebo ([1]; ITT): no statistically significant effects | Simple Reaction Time and Digit Vigilance Speed, effect of treatment ([1]; ITT): no statistically significant effects of treatment | Speed of Memory and subtasks Spatial and Numeric Working Memory Speeds, Word and Picture Recognition Speeds, effect of treatment ([1]; ITT): no statistically significant effects of treatment | Power of Attention, effect of treatment ([1]; ITT, 1, 2, 4 g daily vs placebo, ANCOVA): no statistically significant effect of treatment | Immediate Word Recall Accuracy, LS mean difference vs placebo ([1]; ITT, 1 g, Day 14, p=0.028): statistically significant decreases | Picture Recognition Speed, difference vs placebo ([1]; ITT, 1 g, Day 14 at AM 2, p=0.084): trends for benefits | Immediate Word Recall Accuracy, LS mean difference vs placebo ([1]; ITT, 1 g, Day 14 at PM 2, p=0.020): statistically significant decreases | Word Recognition Sensitivity Index, LS mean difference vs placebo ([1]; ITT, 1 g, Day 28, p=0.024): statistically significant decreases | Picture Recognition Speed, difference vs placebo ([1]; ITT, 1 g, Day 28 at AM 1, p=0.085): trends for benefits | Picture Recognition Sensitivity Index, LS mean difference vs placebo ([1]; ITT, 1 g, Day 28 at AM 2, p=0.017): statistically significant decrease | Picture Recognition Sensitivity Index, LS mean difference vs placebo ([1]; ITT, 1 g, Day 28 at PM 2, p=0.040): statistically significant decrease | Immediate Word Recall Accuracy, LS mean difference vs placebo ([1]; ITT, 1 g, at AM 1, p=0.040): statistically significant decreases | Quality of Episodic Secondary Memory, LS mean difference vs placebo ([1]; ITT, 1 g, p=0.040): statistically significant decreases | Immediate Word Recall Accuracy, LS mean difference vs placebo ([1]; ITT, 2 g, Day 28, p=0.017): statistically significant decreases | Self-Rated Alertness, LS mean difference vs placebo ([1]; ITT, 2 g, Day 28, p=0.047): statistically significant decrease in ratings | Immediate Word Recall Accuracy, LS mean difference vs placebo ([1]; ITT, 2 g, Day 28 at AM 1, p=0.006): statistically significant decreases | Self-Rated Alertness, LS mean difference vs placebo ([1]; ITT, 2 g, Day 28 at AM 2, p=0.041): statistically significant decrease in ratings | Immediate Word Recall Accuracy, LS mean difference vs placebo ([1]; ITT, 2 g, at AM 1, p=0.028): statistically significant decreases | Quality of Episodic Secondary Memory, LS mean difference vs placebo ([1]; ITT, 2 g, p=0.035): statistically significant decreases | Spatial Working Memory Speed, LS mean difference vs placebo ([1]; ITT, 4 g, Day 14 at PM 1, p=0.048): statistically significant benefit | Word Recognition Sensitivity Index, LS mean difference vs placebo ([1]; ITT, 4 g, Day 28 at PM 2, p=0.030): statistically significant decrease | Word Recognition Sensitivity Index, LS mean difference vs placebo ([1]; ITT, 4 g, Day 42, p=0.038): statistically significant decreases | Spatial Working Memory Speed, LS mean difference vs placebo ([1]; ITT, 4 g, Day 42 at AM 1, p=0.061): trend for a benefit | Word Recognition Sensitivity Index, LS mean difference vs placebo ([1]; ITT, 4 g, at PM 2, p=0.045): statistically significant decrease | Power of Attention, LS mean difference active treatment vs placebo ([1]; ITT, any time-point): no LS mean difference | Self-Rated Contentment, ANCOVA ([1]; ITT): statistically significant treatment by day interaction | Choice Reaction Time, ANCOVA ([1]; ITT, p=0.011): statistically significant treatment by day interaction | Spatial Working Memory Sensitivity Index, ANCOVA ([1]; ITT, p=0.015): statistically significant treatment by day interaction | Quality of Working Memory, ANCOVA ([1]; ITT, p=0.019): statistically significant treatment by day interaction | Numeric Working Memory Sensitivity Index, ANCOVA ([1]; ITT, p=0.089): statistical trend for a treatment by day interaction | Continuity of Attention, effect of treatment ([1]; Study Per Protocol): no statistically significant effect of treatment | Digit Vigilance Targets Detected, ANCOVA ([1]; Study Per Protocol, p=0.040): statistically significant treatment by time-point interaction | Immediate and Delayed Word Recall Accuracies, Word and Picture Recognition Sensitivity Indices, effect of treatment ([1]; Study Per-Protocol): no statistically significant effects of treatment | Power of Attention, effect of treatment ([1]; Study Per-Protocol): no statistically significant effect of treatment | Quality of Episodic Secondary Memory, effect of treatment ([1]; Study Per-Protocol): no statistically significant effects of treatment | Self-Rated Alertness, effect of treatment ([1]; Study Per-Protocol): no statistically significant effect of treatment | Self-Rated Calmness, effect of treatment ([1]; Study Per-Protocol): no statistically significant effect of treatment | Self-Rated Contentment, LS mean difference to placebo ([1]; Study Per-Protocol): no statistically significant effects | Simple Reaction Time and Digit Vigilance Speed, effect of treatment ([1]; Study Per-Protocol): no statistically significant effects of treatment | Speed of Memory and subtasks Spatial and Numeric Working Memory Speed, Word and Picture Recognition Speed, effect of treatment ([1]; Study Per-Protocol): no statistical significant effects of treatment | Immediate Word Recall Accuracy, LS mean difference to placebo ([1]; Study Per-Protocol, 1 g, Day 14, p=0.024): statistically significant decreases | Immediate Word Recall Accuracy, LS mean difference to placebo ([1]; Study Per-Protocol, 1 g, Day 14 at PM 2, p=0.019): statistically significant decreases | Word Recognition Sensitivity Index, LS mean difference to placebo ([1]; Study Per-Protocol, 1 g, Day 28, p=0.027): statistically significant decreases | Picture Recognition Sensitivity Index, LS mean difference vs placebo ([1]; Study Per-Protocol, 1 g, Day 28 at AM 2, p=0.020): statistically significant decreases | Picture Recognition Sensitivity Index, LS mean difference vs placebo ([1]; Study Per-Protocol, 1 g, Day 28 at PM 2, p=0.026): statistically significant decreases | Immediate Word Recall Accuracy, LS mean difference to placebo ([1]; Study Per-Protocol, 1 g, at AM 1, p=0.038): statistically significant decreases | Immediate Word Recall Accuracy, LS mean difference to placebo ([1]; Study Per-Protocol, 1 g, at AM 2, p=0.048): statistically significant decreases | Quality of Episodic Secondary Memory, LS mean difference vs placebo ([1]; Study Per-Protocol, 1 g, p=0.043): statistically significant decreases | Immediate Word Recall Accuracy, LS mean difference to placebo ([1]; Study Per-Protocol, 2 g, Day 28, p=0.017): statistically significant decreases | Self-Rated Alertness, LS mean difference vs placebo ([1]; Study Per-Protocol, 2 g, Day 28, p=0.035): statistically significant decrease in ratings | Immediate Word Recall Accuracy, LS mean difference to placebo ([1]; Study Per-Protocol, 2 g, Day 28 at AM 1, p=0.006): statistically significant decreases | Self-Rated Alertness, LS mean difference vs placebo ([1]; Study Per-Protocol, 2 g, Day 28 at AM 2, p=0.033): statistically significant decrease in ratings | Immediate Word Recall Accuracy, LS mean difference to placebo ([1]; Study Per-Protocol, 2 g, at AM 1, p=0.029): statistically significant decreases | Quality of Episodic Secondary Memory, LS mean difference vs placebo ([1]; Study Per-Protocol, 2 g, p=0.036): statistically significant decreases | Word Recognition Sensitivity Index, LS mean difference to placebo ([1]; Study Per-Protocol, 4 g, Day 42, p=0.038): statistically significant decreases | Self-Rated Calmness, LS mean difference vs placebo ([1]; Study Per-Protocol, 4 g, Day 42 at PM 1, p=0.071): statistical trend for an increase in ratings | Power of Attention, difference active treatment vs placebo ([1]; Study Per-Protocol, any time-point): no difference between active treatment and placebo | Self-Rated Contentment, ANCOVA ([1]; Study Per-Protocol): statistically significant treatment by day interaction | Choice Reaction Time, ANCOVA ([1]; Study Per-Protocol, p=0.013): statistically significant treatment by day interaction | Spatial Working Memory Sensitivity Index, ANCOVA ([1]; Study Per-Protocol, p=0.014): statistically significant treatment by day interaction | Quality of Working Memory, ANCOVA ([1]; Study Per-Protocol, p=0.021): statistically significant treatment by day interaction | Continuity of Attention, post-hoc vs corresponding placebo ([1]; post-hoc): no general pattern of effects | Quality of Working Memory and Numeric Working Memory Sensitivity Index, post-hoc vs corresponding placebo ([1]; post-hoc): only isolated improvements and declines in performance | Self-Rated Calmness, post-hoc vs corresponding placebo ([1]; post-hoc): no differences between active treatment and placebo | Self-rated Alertness and Self-rated Contentment, post-hoc vs corresponding placebo ([1]; post-hoc, 1 g, Days 14 and 28): decreases in ratings | Choice Reaction Time, post-hoc vs corresponding placebo ([1]; post-hoc, 4 g, Day 42): superior to placebo at every time point | Power of Attention, post-hoc vs corresponding placebo ([1]; post-hoc, 4 g, Day 42): overall benefit versus the corresponding placebo | Spatial Working Memory Sensitivity Index, post-hoc vs corresponding placebo ([1]; post-hoc, 4 g, Day 42, Study PP Population): overall benefit | Simple Reaction Time, post-hoc vs corresponding placebo ([1]; post-hoc, 4 g, PM 2 collapsed across days, several time-points Days 14 and 42): improvements in performance | Choice Reaction Time, post-hoc vs corresponding placebo ([1]; post-hoc, 4 g, all study days): overall benefit versus corresponding placebo | Quality of Episodic Secondary Memory and contributing subtasks, post-hoc vs corresponding placebo ([1]; post-hoc, explained by pre-existing group differences): a number of decreases | Speed of Memory subtask measures, post-hoc vs corresponding placebo ([1]; post-hoc, mostly 1 g): some signs of improvement in performance | Difference in percent change from baseline in fasting LDL-C between study drug and placebo [2]: 2.2%
